Measurements taken from patent US8298176B2, “Flow-induced delivery from a drug mass” (priority 2006, dated 2012).

Key:
[1] = cited from earlier work
[2] = Dissolution of gacyclidine base pellets in a continuous flow reactor (elution with Ringer's solution containing hydrochloric acid); type: physicochemical; conditions: for pH of the eluted drug solution: room temperature (23±2° C.)
Method: A drug chamber similar to the one illustrated in FIGS. 2 and 4 was loaded with 11 pellets of gacyclidine base having a combined mass of 18 mg. This drug-loaded chamber was eluted at a flow rate of 20 μL/hr at room temperature (23±2° C.) using a MiniMed 508 syringe pump (available from Medtronics MiniMed of Northridge, Calif.). The syringe was loaded with 3 mL of Ringer's solution containing 0.05 to 3 mM hydrochloric acid. The eluted volume was collected in PTFE tubing attached to the pump drug capsule assembly, after a 3-D antibacterial filter. The pH of this solution was determined by use of a pH meter equipped with a Calomel electrode. Drug concentration was determined by HPLC.
The highest pH of the eluted drug solution (5.9) was obtained at 0.05 mM hydrochloric acid, and the lowest pH of the eluted drug solution (5.6) was obtained at 3 mM hydrochloric acid. These pH values indicate quantitative conversion of the hydrochloric acid to the drug salt and are consistent with the pH expected for solutions of the hydrochloride salt.

[3] = body temperature / in the presence of water; cited from earlier work

Row | SMILES | water solubility (in words) [1] | correlation in gacyclidine concentration per hydrochloric acid concentration used for elution ([2]; 0.05 to 3 mM HCl in Ringer's solution, 20 μL/hr, linear fit of FIG. 26, drug by HPLC) | pH of the eluted drug solution ([2]; eluted with Ringer's solution containing 0.05 mM hydrochloric acid, 20 μL/hr, highest pH) | pH of the eluted drug solution ([2]; eluted with Ringer's solution containing 3 mM hydrochloric acid, 20 μL/hr, lowest pH) | intercept at zero concentration of hydrochloric acid ([2]; linear fit of FIG. 26, gacyclidine concentration in eluate) [mM] | stability (in words) [3]
1 | CCN(CC)C(=O)SC[C@H](NC(=O)CC[C@H](N)C(=O)O)C(=O)NCC(=O)O [carbamathione] | sparingly soluble in water | – | – | – | – | –
2 | CC1CCCCC1(c1cccs1)N1CCCCC1 (stereo not shown) [gacyclidine] | sparingly soluble in water | 0.976±0.049 | 5.9 | 5.6 | 0.0014 ± 0.0061 | much more stable than its acidic form in the presence of water
3 | C[C@H]1CCCC[C@@]1(c1cccs1)N1CCCCC1.Cl [hydrochloride salt of gacyclidine] | highly water soluble | – | – | – | – | unstable at body temperature
4 | CC1(C)O[C@@H]2C[C@H]3[C@@H]4CCC5=CC(=O)C=C[C@]5(C)[C@@]4(F)[C@@H](O)C[C@]3(C)[C@]2(C(=O)CO)O1 [triamcinolone acetonide] | very low water solubility | – | – | – | – | –
